According to patent US10294202B2, “Pyrrolidinones as herbicides” (FMC Corporation, priority 2013, dated 2019):
Where two headings read alike, the source gives them in different places.

What was measured:
[1] = system: pigweed; assay: Test A pre-/postemergence herbicide test; format: in vivo, Amaranthus retroflexus; conditions: for pest or weed control at 125 g/ha / pest or weed control at 500 g/ha: Amaranthus retroflexus, 240 h, read-out: Plant response rating, Pigweed; for pest or weed control at 125 g/ha / Pigweed plant response rating: 125 g ai/ha; for pest or weed control at 125 g/ha: 0 no effect, 100 complete control; for pest or weed control at 500 g/ha: 500 g ai/ha; for Pigweed plant response rating: Preemergence, visual rating on 0 to 100 scale (0 no effect, 100 complete control)
Outline: (§1)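 Approximately 10 days after treatment in the greenhouse, plants were compared with untreated controls and given a 0–100 visual injury rating. Applications: preemergence directed soil spray; postemergence on 2–10 cm plants at the one- to two-leaf stage.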

[2] = system: wheat; assay: Test A pre-/postemergence herbicide test; format: in vivo, Triticum aestivum; conditions: for Wheat plant response rating: Preemergence, visual rating on 0 to 100 scale (0 no effect, 100 complete control); for Wheat plant response rating / plant injury at 125 g/ha: 125 g ai/ha; for plant injury at 125 g/ha / plant injury at 500 g/ha: Triticum aestivum, 240 h, read-out: Plant response rating, Wheat; for plant injury at 125 g/ha: 0 no effect, 100 complete control; for plant injury at 500 g/ha: 500 g ai/ha
Outline: as §1

[3] = system: corn; assay: Test A pre-/postemergence herbicide test; format: in vivo, Zea mays; conditions: for Corn plant response rating: Preemergence, visual rating on 0 to 100 scale (0 no effect, 100 complete control); for Corn plant response rating / Corn plant response rating (crop injury, 0 = no effect, 100 = complete kill) at 125 g/ha: 125 g ai/ha; for Corn plant response rating (crop injury, 0 = no effect, 100 = complete kill) at 125 g/ha / Corn plant response rating (crop injury, 0 = no effect, 100 = complete kill) at 500 g/ha: Zea mays, 240 h; for Corn plant response rating (crop injury, 0 = no effect, 100 = complete kill) at 125 g/ha: 100 complete control; for Corn plant response rating (crop injury, 0 = no effect, 100 = complete kill) at 500 g/ha: 500 g ai/ha
Outline: as §1

[4] = system: rice; assay: Test B flooded paddy test; format: in vivo, Oryza sativa; conditions: 250 g ai/ha, Flood; scale of 0 to 100 where 0 is no effect and 100 is complete control
Outline: (§2)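 Treatment was made at the 2-leaf stage by dosing the standing floodwater, kept 3 cm above soil level for the whole test. Greenhouse exposure lasted 13 to 15 days. Response is a visual percent rating relative to controls, where a dash indicates no test result.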

[5] = system: sedge, umbrella; assay: Test B flooded paddy test; format: in vivo, Cyperus difformis; conditions: 250 g ai/ha, Flood; scale of 0 to 100 where 0 is no effect and 100 is complete control
Outline: as §2

[6] = system: barnyardgrass; assay: Test B flooded paddy test; format: in vivo, Echinochloa crus-galli; conditions: 250 g ai/ha, Flood; scale of 0 to 100 where 0 is no effect and 100 is complete control
Outline: as §2

[7] = system: wheat (winter wheat); assay: Test C pre-/postemergence herbicide test; format: in vivo, Triticum aestivum; conditions: for Wheat plant response rating: scale 0 to 100, 0 is no effect and 100 is complete control
Outline: (§3)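 Plants grown and held in a greenhouse for 13 to 15 days post-spray, then rated 0–100 by visual comparison with controls. Pre treatments targeted seeds in loam and sand; post treatments targeted 1- to 4-leaf plants in peat-based potting medium.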

[8] = system: morningglory; assay: Test C pre-/postemergence herbicide test; format: in vivo, Ipomoea coccinea; conditions: for Morningglory plant response rating: scale 0 to 100, 0 is no effect and 100 is complete control
Outline: as §3

[9] = system: ragweed; assay: Test C pre-/postemergence herbicide test; format: in vivo, Ambrosia elatior; conditions: Postemergence
Outline: as §3

[10] = system: oilseed rape; assay: Test C pre-/postemergence herbicide test; format: in vivo, Brassica napus; conditions: for Oilseed Rape plant response rating: scale 0 to 100, 0 is no effect and 100 is complete control
Outline: as §3

[11] = system: waterhemp; assay: Test C pre-/postemergence herbicide test; format: in vivo, Amaranthus rudis; conditions: for Waterhemp plant response rating: scale 0 to 100, 0 is no effect and 100 is complete control
Outline: as §3

[12] = system: oat, wild; assay: Test C pre-/postemergence herbicide test; format: in vivo, Avena fatua; conditions: Postemergence
Outline: as §3

[13] = post-emergence, Postemergence, 0 to 100 scale
[14] = post-emergence, Postemergence, 0 to 100 scale (0 no effect, 100 complete control)
[15] = pre-emergence, preemergence, 0 to 100 scale
[16] = Postemergence, 31 g ai/ha, scale 0 (no effect) to 100 (complete control)
[17] = Postemergence, 62 g ai/ha, scale 0 to 100 (0 no effect, 100 complete control)
[18] = Postemergence, 125 g ai/ha, scale 0 to 100 (0 no effect, 100 complete control)
[19] = Postemergence, 250 g ai/ha, scale 0 to 100 (0 no effect, 100 complete control)
[20] = Preemergence, 62 g ai/ha, scale 0 to 100
[21] = Preemergence, 125 g ai/ha, scale 0 to 100 (0 no effect, 100 complete control)
[22] = 31 g ai/ha, scale 0 (no effect) to 100 (complete control)
[23] = 62 g ai/ha, scale 0 to 100 (0 no effect, 100 complete control)
[24] = 125 g ai/ha, scale 0 to 100 (0 no effect, 100 complete control)
[25] = 250 g ai/ha, scale 0 to 100 (0 no effect, 100 complete control)

O=C1NCC(c2ccc(C(F)(F)F)cc2)C1C(=O)Nc1ccccc1F (centres unmarked) [Compound 79, N-(2-fluorophenyl)-2-oxo-4-[4-(trifluoromethyl)phenyl]-3-pyrrolidinecarboxamide]
pest or weed control at 125 g/ha [1, 13]: 70% | pest or weed control at 500 g/ha [1, 14]: 70% | pest or weed control at 500 g/ha [1, 15]: 80% | Pigweed plant response rating [1]: 80 | Wheat plant response rating [2]: 0 | plant injury at 125 g/ha [2, 13]: 30% | plant injury at 500 g/ha [2, 14]: 50% | plant injury at 500 g/ha [2, 15]: 20% | Corn plant response rating [3]: 0 | Corn plant response rating (crop injury, 0 = no effect, 100 = complete kill) at 125 g/ha [3, 13]: 20% | Corn plant response rating (crop injury, 0 = no effect, 100 = complete kill) at 500 g/ha [3, 14]: 70% | Corn plant response rating (crop injury, 0 = no effect, 100 = complete kill) at 500 g/ha [3, 15]: 0% | Plant response rating, Rice [4]: 0 | Plant response rating, Sedge, Umbrella [5]: 0 | Plant response rating, Barnyardgrass [6]: 0 | Plant response rating, Wheat [7, 16]: 0 | Plant response rating, Wheat [7, 17]: 0 | Plant response rating, Wheat [7, 18]: 0 | Plant response rating, Wheat [7, 19]: 0 | Wheat plant response rating ([7]; Preemergence, 31 g ai/ha): 10 | Plant response rating, Wheat [7, 20]: 40 | Plant response rating, Wheat [7, 21]: 60 | Plant response rating (scale of 0 to 100), Wheat ([7]; Preemergence, 250 g ai/ha): 75 | Plant response rating, Morningglory [8, 16]: 0 | Plant response rating, Morningglory [8, 17]: 0 | Plant response rating, Morningglory [8, 18]: 5 | Plant response rating, Morningglory [8, 19]: 5 | Morningglory plant response rating ([8]; Preemergence, 31 g ai/ha): 0 | Plant response rating, Morningglory [8, 20]: 0 | Plant response rating, Morningglory [8, 21]: 0 | Plant response rating (scale of 0 to 100), Morningglory ([8]; Preemergence, 250 g ai/ha): 0 | Plant response rating, Ragweed [9, 22]: 20 | Plant response rating, Ragweed [9, 23]: 20 | Plant response rating, Ragweed [9, 24]: 20 | Plant response rating, Ragweed [9, 25]: 45 | Plant response rating, Oilseed Rape [10, 16]: 0 | Plant response rating, Oilseed Rape [10, 17]: 0 | Plant response rating, Oilseed Rape [10, 18]: 0 | Plant response rating, Oilseed Rape [10, 19]: 0 | Oilseed Rape plant response rating ([10]; Preemergence, 31 g ai/ha): 0 | Plant response rating, Oilseed Rape [10, 20]: 5 | Plant response rating, Oilseed Rape [10, 21]: 70 | Plant response rating (scale of 0 to 100), Oilseed Rape ([10]; Preemergence, 250 g ai/ha): 80 | Plant response rating, Waterhemp [11, 16]: 10 | Plant response rating, Waterhemp [11, 17]: 10 | Plant response rating, Waterhemp [11, 18]: 10 | Plant response rating, Waterhemp [11, 19]: 30 | Waterhemp plant response rating ([11]; Preemergence, 31 g ai/ha): 25 | Plant response rating, Waterhemp [11, 20]: 40 | Plant response rating, Waterhemp [11, 21]: 80 | Plant response rating (scale of 0 to 100), Waterhemp ([11]; Preemergence, 250 g ai/ha): 85 | Plant response rating, Oat, Wild [12, 22]: 0 | Plant response rating, Oat, Wild [12, 23]: 0 | Plant response rating, Oat, Wild [12, 24]: 0 | Plant response rating, Oat, Wild [12, 25]: 0

O=C1NCC(c2ccc(C(F)(F)F)cc2)C1C(=O)Nc1cccc(F)c1F (centres unmarked) [Compound 80, N-(2,3-difluorophenyl)-2-oxo-4-[4-(trifluoromethyl)phenyl]-3-pyrrolidinecarboxamide]
pest or weed control at 125 g/ha [1, 13]: 60% | pest or weed control at 500 g/ha [1, 14]: 70% | pest or weed control at 500 g/ha [1, 15]: 80% | Pigweed plant response rating [1]: 60 | Wheat plant response rating [2]: 0 | plant injury at 125 g/ha [2, 13]: 40% | plant injury at 500 g/ha [2, 14]: 50% | plant injury at 500 g/ha [2, 15]: 20% | Corn plant response rating [3]: 0 | Corn plant response rating (crop injury, 0 = no effect, 100 = complete kill) at 125 g/ha [3, 13]: 30% | Corn plant response rating (crop injury, 0 = no effect, 100 = complete kill) at 500 g/ha [3, 14]: 60% | Corn plant response rating (crop injury, 0 = no effect, 100 = complete kill) at 500 g/ha [3, 15]: 0% | Plant response rating, Rice [4]: 0 | Plant response rating, Sedge, Umbrella [5]: 0 | Plant response rating, Barnyardgrass [6]: 30 | Plant response rating, Wheat [7, 16]: 0 | Plant response rating, Wheat [7, 17]: 0 | Plant response rating, Wheat [7, 18]: 0 | Plant response rating, Wheat [7, 19]: 0 | Wheat plant response rating ([7]; Preemergence, 31 g ai/ha): 0 | Plant response rating, Wheat [7, 20]: 5 | Plant response rating, Wheat [7, 21]: 80 | Plant response rating (scale of 0 to 100), Wheat ([7]; Preemergence, 250 g ai/ha): 80 | Plant response rating, Morningglory [8, 16]: 0 | Plant response rating, Morningglory [8, 17]: 5 | Plant response rating, Morningglory [8, 18]: 5 | Plant response rating, Morningglory [8, 19]: 5 | Morningglory plant response rating ([8]; Preemergence, 31 g ai/ha): 0 | Plant response rating, Morningglory [8, 20]: 0 | Plant response rating, Morningglory [8, 21]: 20 | Plant response rating (scale of 0 to 100), Morningglory ([8]; Preemergence, 250 g ai/ha): 20 | Plant response rating, Ragweed [9, 22]: 30 | Plant response rating, Ragweed [9, 23]: 30 | Plant response rating, Ragweed [9, 24]: 30 | Plant response rating, Ragweed [9, 25]: 30 | Plant response rating, Oilseed Rape [10, 16]: 0 | Plant response rating, Oilseed Rape [10, 17]: 0 | Plant response rating, Oilseed Rape [10, 18]: 20 | Plant response rating, Oilseed Rape [10, 19]: 60 | Oilseed Rape plant response rating ([10]; Preemergence, 31 g ai/ha): 5 | Plant response rating, Oilseed Rape [10, 20]: 85 | Plant response rating, Oilseed Rape [10, 21]: 90 | Plant response rating (scale of 0 to 100), Oilseed Rape ([10]; Preemergence, 250 g ai/ha): 90 | Plant response rating, Waterhemp [11, 16]: 30 | Plant response rating, Waterhemp [11, 17]: 45 | Plant response rating, Waterhemp [11, 18]: 45 | Plant response rating, Waterhemp [11, 19]: 65 | Waterhemp plant response rating ([11]; Preemergence, 31 g ai/ha): 15 | Plant response rating, Waterhemp [11, 20]: 80 | Plant response rating, Waterhemp [11, 21]: 90 | Plant response rating (scale of 0 to 100), Waterhemp ([11]; Preemergence, 250 g ai/ha): 90 | Plant response rating, Oat, Wild [12, 22]: 0 | Plant response rating, Oat, Wild [12, 23]: 0 | Plant response rating, Oat, Wild [12, 24]: 0 | Plant response rating, Oat, Wild [12, 25]: 0
